Data: ChEMBL document CHEMBL1201862, “PubChem BioAssay data set” (2004)
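Five concentrations, 48 hours, 96-well plates. GI50 is the concentration that inhibits growth by half.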 Activity calls are given as the source filed them. Rule as the data show it: active = GI50 up to about 1.1 µM and inactive = higher.

How the values were obtained:
Assay in all cases: NCI-60 cell line screen, 48 h
[1] = test system: ACHN
[2] = test system: SF-268
[3] = test system: SNB-75
[4] = test system: CCRF-CEM
[5] = test system: 786-0
[6] = test system: K562
[7] = test system: TK-10
[8] = test system: SK-MEL-2
[9] = test system: IGROV-1
[10] = test system: NCI-H226
[11] = test system: MOLT-4
[12] = test system: OVCAR-5
[13] = test system: SK-MEL-28
[14] = test system: SK-OV-3
[15] = test system: HOP-18
[16] = test system: NCI-H522
[17] = test system: HOP-62
[18] = test system: MCF7
[19] = test system: BT-549
[20] = test system: MDA-MB-435

Measured: GI50

O=C(O)C1Cc2[nH]cnc2CN1 (centres undefined)
inactive: [1] > 100 µM | [2] > 100 µM | [3] > 100 µM | [4] > 100 µM | [5] > 100 µM | [6] > 100 µM | [7] > 100 µM | [8] > 100 µM | [9] > 100 µM | [10] > 100 µM | [11] > 100 µM | [12] > 100 µM | [13] > 100 µM | [14] > 100 µM | [15] > 100 µM | [16] > 100 µM

Cn1c(=S)c2nc(SCCN3C(=O)c4ccccc4C3=O)[nH]c2n(C)c1=O
inactive: [1] > 100 µM | [2] > 100 µM | [3] > 100 µM | [4] 17.3 µM | [17] > 100 µM | [5] > 100 µM | [6] > 100 µM | [7] > 100 µM | [8] > 100 µM | [9] 30.1 µM | [10] > 100 µM | [18] 32.7 µM | [11] 88.3 µM | [12] > 100 µM | [13] > 100 µM | [19] > 100 µM | [14] > 100 µM | [20] > 100 µM | [16] 5.27 µM

Cc1c2c(c(C)c3c1[nH]c1ccccc13)CN(C)CC2
inactive: [1] 18.2 µM | [2] 20.3 µM | [3] 13.5 µM | [4] 49.4 µM | [17] 23.2 µM | [5] 14.9 µM | [6] 31.3 µM | [7] 29.4 µM | [8] 17.3 µM | [9] 26.8 µM | [10] 19.1 µM | [11] 28.7 µM | [12] 38.8 µM | [13] 19.2 µM | [14] 25.5 µM | [15] 6.21 µM | [16] 17 µM

COC(=O)c1c[nH]cc1CCCCc1c[nH]cc1C(=O)OC
inactive: [1] > 100 µM | [2] > 100 µM | [4] > 100 µM | [17] > 100 µM | [5] 89.1 µM | [6] > 100 µM | [7] > 100 µM | [8] > 100 µM | [9] > 100 µM | [10] > 100 µM | [11] > 100 µM | [12] > 100 µM | [13] > 100 µM | [14] > 100 µM | [15] > 100 µM | [16] > 100 µM

C=CCc1cc(OC)c2c(c1)C(O)CC(c1ccccc1)O2 (centres undefined)
inactive: [1] > 100 µM | [2] > 100 µM | [3] > 100 µM | [4] > 100 µM | [17] > 100 µM | [5] > 100 µM | [6] 23.6 µM | [7] > 100 µM | [8] > 100 µM | [9] > 100 µM | [10] > 100 µM | [11] 27.9 µM | [12] 78.5 µM | [13] > 100 µM | [14] > 100 µM | [15] > 100 µM | [16] > 100 µM

CC12c3ccccc3C(OC=O)(c3ccccc31)C1(C)c3ccccc3C2(OC=O)c2ccccc21
inactive: [1] > 100 µM | [2] > 100 µM | [3] 81.1 µM | [4] 36.6 µM | [17] 48.5 µM | [5] > 100 µM | [6] > 100 µM | [7] > 100 µM | [8] > 100 µM | [9] > 100 µM | [10] > 100 µM | [11] 25.2 µM | [12] > 100 µM | [13] > 100 µM | [14] > 100 µM | [15] > 100 µM | [16] > 100 µM

CCC(C)NC1=C(NC(C)=O)C(=O)c2ccccc2C1=O (centres undefined)
inactive: [1] > 75 µM | [2] > 75 µM | [3] > 75 µM | [4] 21.8 µM | [17] > 75 µM | [5] > 7.5 µM | [6] 43.9 µM | [7] > 75 µM | [8] > 75 µM | [9] > 75 µM | [10] > 75 µM | [11] 74 µM | [12] > 75 µM | [13] > 75 µM | [14] > 75 µM | [15] > 75 µM

CCOC(=O)C(Cc1ccc([N+](=O)[O-])cc1)NC(=O)CC1c2ccccc2-c2ccccc21 (centres undefined)
inactive: [1] 20.7 µM | [2] 50.7 µM | [3] 26.1 µM | [4] > 100 µM | [17] 35.2 µM | [5] 39.1 µM | [6] > 100 µM | [7] 32.7 µM | [8] 45.1 µM | [9] > 100 µM | [10] > 100 µM | [11] > 100 µM | [13] 90.8 µM | [14] 78.7 µM | [15] > 100 µM | [16] > 100 µM
